Assays:
[1] = tested on: T37i cells (brown fat precursor cells); assay: Brown adipocyte marker expression in differentiated T37i cells, real-time PCR; format: cell-based; conditions: butein 5, 10 and 20 μM, 6 days, FIG. 2
Method: To confirm an increase in number of brown adipocytes by butein treatment, brown fat precursor cells, T37i cells, were used. The T37i cells were cultured in a medium containing 5 μg/ml insulin and 1 nM triiodothyronine (T3) for 2 days, and then the differentiation into adipocytes using a medium containing 5 μg/ml insulin was induced for 6 to 8 days. The differentiation-induced adipocytes were treated with butein for 6 days by concentrations (5, 10 and 20 μM) and stained with Oil Red O, and then mRNA expression levels of PPARγ and aP2 related to the adipocyte differentiation and brown adipocyte markers, that is, UCP-1, PRDM16 and Cidea genes, were confirmed through real-time PCR.

[2] = tested on: HFD obesity-induced C57BL6/J mice; assay: HFD obesity-induced mice, comparison with resveratrol-treated group; format: in vivo; conditions: for body weight compared to the control: 28-week-old mice
Method: To confirm an anti-obesity effect of butein, obesity was induced to C57BL6/J mice by HFD, and changes in body weight according to butein treatment were confirmed. Specifically, 7-week-old mice were adjusted for 1 week, and fed with HFD (60% fat, purchased from Research Diet) for 12 weeks to induce obesity. Afterward, 30 mg/kg of butein was treated daily into 8 of the obesity-induced mice for 8 weeks. As controls, a PBS-treated group (7 mice) and a group (8 mice) treated with resveratrol, which is known to have an effect on preventing obesity, were used. After the 8-week treatment, increases in body weight were compared, and 8 weeks later, a GTT and a ITT were performed in combination with a hematological analysis.

[3] = tested on: UCP-1 expression in C3H10T1/2 cells; assay: UCP-1 expression in differentiated C3H10T1/2 adipocytes, real-time PCR; format: cell-based, mouse
Method: Differentiated C3H10T1/2 adipocytes were treated with the butein and the derivatives for 24 hours, and the expression levels of UCP-1 and PRDM4 were investigated using real-time PCR.

[4] = tested on: HFD obesity-induced C57BL6/J mice; assay: HFD obesity-induced mice, comparison with PBS-treated group; format: in vivo
Method: To confirm an anti-obesity effect of butein, obesity was induced in C57BL6/J mice by HFD, and the mice were treated with butein through abdominal injection. 7-week-old mice were adjusted for 1 week, fed with HFD (60% fat, purchased from Research Diet) for 8 weeks to induce obesity, and butein was treated daily at 5 mg/kg and 15 mg/kg into two groups of mice, each group having 7 mice. As controls, a normal diet food intake group (5 mice) and a group fed with HFD and treated with PBS (7 mice) were used. Increases in body weight during the treatment period and weights of various organs were compared, and after 8 weeks, a glucose tolerance test (GTT) and an insulin tolerance test (ITT) were performed in combination with histological and hematological analyses.

[5] = tested on: PRDM4 expression in C3H10T1/2 cells; assay: PRDM4 expression in differentiated C3H10T1/2 adipocytes, real-time PCR; format: cell-based, mouse; conditions: 24 hours, FIG. 25
Method: To confirm an anti-obesity effect of the butein derivative, changes in expression levels of UCP-1 and PRDM4 by treatment of the butein derivative (Formulas 1-1 to 1-8 and 1-10 to 1-14) were measured. Differentiated C3H10T1/2 adipocytes were treated with the butein and the derivatives for 24 hours, and the expression levels of UCP-1 and PRDM4 were investigated using real-time PCR.

[6] = tested on: epididymal fat, subcutaneous fat and brown fat; assay: Marker expression in adipose tissues of mice treated for 14 days, real-time PCR; format: in vivo; conditions: 5 mg/kg abdominal injection, FIGS. 6 to 8
Method: To examine activities of butein to increase the numbers of beige and brown adipocytes and inhibit white adipocytes in vivo, expression of markers in adipose tissues were measured after mice were treated with butein for 14 days. 6 mice were treated with 5 mg/kg of the butein through abdominal injection, and as a control, 6 mice were treated with only a solvent through abdominal injection. After 14 days, expression levels of markers for white fat and beige (brown) fat in epididymal fat, subcutaneous fat and brown fat were confirmed through real-time PCR.

PRDM4 gene = assay: Microarray for gene inducing bioactivity of butein; format: cell-based
[7] = tested on: UCP-1 expression in MEF cells; assay: UCP-1 expression in MEF cells; format: cell-based, mouse; conditions: DMSO-treated control, FIG. 4
Description: An increase in expression level of UCP-1 by butein treatment in C3H10T1/2 cells was compared to those by treatment of sulfuretin, fisetin, resveratrol and genistein, which are known as materials having an influence on adipocytes, and the increase in expression level of UCP-1 by butein treatment in MEF cells was compared to a DMSO-treated group as a control.

[8] = differentiated C3H10T1/2 adipocytes, 24 hours, FIG. 25
[9] = HFD 8 weeks, butein 5 and 15 mg/kg daily, vs HFD control

O=C(/C=C/c1ccc(O)c(O)c1)c1ccc(O)cc1O [Compound 1-1, butein]
expression of Cidea [1]: increased
expression of PRDM16 [1]: increased
expression of UCP-1 [1]: increased
effect of decreasing body weight compared to the resveratrol-treated group ([2]; 30 mg/kg daily for 8 weeks after 12 weeks HFD): considerably excellent effect of decreasing a body weight
decrease in body weight compared to the PBS-treated group ([2]; 30 mg/kg daily for 8 weeks after 12 weeks HFD, FIG. 20): approximately 10%
body weight compared to the control [2]: considerable decrease
glucose-insulin metabolism (GTT and ITT) ([2]; HFD-But group, FIG. 21): considerably improved
rectal temperature ([2]; HFD-But group, FIG. 21): increased
food intake ([2]; between three groups, FIG. 20C): no differences
expression of UCP-1 compared to sulfuretin, fisetin, resveratrol and genistein ([3]; C3H10T1/2 cells, FIG. 3): increased more than three times
expression of UCP-1 ([3]; butein 5, 10 and 20 μM, 24 hours, FIG. 1): the expression of UCP-1 increased
expression level of UCP-1 [3, 8]: significant increases
expression level of UCP-1 ([3]; differentiated C3H10T1/2 cells, 24 hours, FIG. 5): specifically and considerably increased
UCP-1, PRDM16, Cox8b, PGC-1α, CIDEA, COX7a and Dio2 specifically expressed in beige adipocytes ([4]; 15 mg/kg of butein, 8 weeks): increased
glucose-insulin metabolism (GTT and ITT) ([4]; 15 mg/kg of butein, 8 weeks): significantly improved
body weight [4, 9]: tendency to concentration-dependent decreases
weights of adipose tissues of livers and internal organs [4, 9]: tendency to concentration-dependent decreases
hematological analysis: glucose, cholesterol, neutral fat, HDL, LDL and a fatty acid ([4]; high dosage of butein): significant differences
expression level of PRDM4 [5]: significant increases
adipocyte markers PPARγ and aP2 [6]: decreases
brown adipocyte markers UCP-1, PRDM16 Cox8b and Cidea [6]: increases
white adipocyte markers resistin and Nnmt [6]: decreases
PRDM4 gene expression (PRDM4 gene): increased in expression by more than approximately twice
expression of UCP-1 compared to the control [7]: more than 10 times

COc1cc(C2CC(=O)c3ccc(O)cc3O2)ccc1F (stereo not drawn) [Compound 1-11, 2-(4-fluoro-3-methoxyphenyl)-7-hydroxychroman-4-one]
expression level of UCP-1 compared to the butein-treated group (BFI) [3, 8]: considerably increased
expression level of PRDM4 compared to the butein-treated group (BFI) [5]: considerably increased

O=C(/C=C/c1ccc(O)c(O)c1)c1ccc(O)cc1 [Compound 1-12, (E)-3-(3,4-dihydroxyphenyl)-1-(4-hydroxyphenyl)prop-2-en-1-one]
expression level of UCP-1 compared to the butein-treated group (BFI) [3, 8]: considerably increased
expression level of PRDM4 compared to the butein-treated group (BFI) [5]: considerably increased

Oc1ccc(C=Cc2cc(O)cc(O)c2)cc1 [resveratrol, reference compound]
body weight compared to the control [2]: no changes
food intake ([2]; mouse, in vivo): no differences
